These results are taken from patent publication US9175024B2, “Platinum compound having amino or alkylamino-containing succinic acid derivatives as leaving group, preparation method thereof, and use thereof” (BEIJING FSWELCOME TECHNOLOGY DEVELOPMENT CO., LTD., priority 2011, dated 2015).

A short description of one data set: physchem. The note with it: water.
Data set [1] in a line: Acute toxic effect of platinum complex on normal mice (LD50, single intravenous administration). The data set is classed as in vivo, Kunming mice. To be noted: both sexes, Kunming, mouse, in vivo; single intravenous administration in 5% glucose solution, 14 days observation, Bliss method. Here is the method:
(§1) Kunming mice at 4˜6 weeks old and at the weight of 18˜22 g were taken, 50% male and 50% female. Embodiment platinum compound was dissolved with 5% glucose solution. […] Mortality and toxicity were observed after administration, totally observing 14 days, LD50 value was calculated with Bliss method according to mortality.

Another data set has as its system Esophagus cancer ECA109. Briefly: MTT cytotoxicity, esophagus cancer ECA109. Format: cell-based. The note with it: n = 6, Esophagus cancer ECA109. The protocol: (§2) Several kinds of tumor cells in exponential growth phase were prepared into single cell suspension, inoculated on 96 pore plat at the density of 4×10^4/hole, cultivated for 24 hours to enable to adhere to wall with 1640 culture medium containing 10% fetal calf serum (complete medium) at 37° C.; the final culture volume was 100 μl. Cell morphology was observed after culture for 24 hours.

Data set [2] is described as follows: Solubility in water of the embodiment and contrast compounds.
In a further data set the test system is Testis cell ST. Briefly: MTT cytotoxicity, testis cell ST. Format: cell-based. The note with it: n = 6, Testis cell ST. Here is the method: as §2
The next data set relates to Gastric cancer MGC803. The experiment in a line: MTT cytotoxicity, gastric cancer MGC803. Format: cell-based. To be noted: n = 6, Gastric cancer MGC803. The protocol: as §2
The subject of the next data set is breast cancer MCF-7. The experiment in a line: In vivo antitumor activity, breast cancer MCF-7 in nude mice. To be noted: MCF-7 in female nude mice, 10 mg (platinum)/kg, once a week, 4 times, tumor weighed 4 weeks later.
For the next data set, the system named is Lung cancer H292. Briefly: MTT cytotoxicity, lung cancer H292. The data set is classed as cell-based. To be noted: n = 6, Lung cancer H292. The protocol: as §2
In the next data set the test system is normal mice. The experiment in a line: Acute toxic effect of platinum complex on normal mice (LD50, single intravenous administration). Format: in vivo, Kunming mice. To be noted: single intravenous administration in 5% glucose solution, 14 days observation, Bliss method. Here is the method: as §1
A further data set deals with Lewis lung cancer. Briefly: MTT cytotoxicity, Lewis lung cancer. The note with it: n = 6, Lewis lung cancer. The data set is classed as cell-based. The protocol:
as §2

In a further data set the test system is Colon cancer SW480. Briefly: MTT cytotoxicity, colon cancer SW480. The data set is classed as cell-based. The note with it: n = 6, Colon cancer SW480. Here is the method: as §2
Data set [3] deals with Pulmonary epithelial cell BEAS-2B. Briefly: MTT cytotoxicity, pulmonary epithelial cell BEAS-2B. To be noted: n = 6, Pulmonary epithelial cell BEAS-2B. Format: cell-based. The protocol:
as §2

What is called solubility is the dissolved amount per volume that the medium holds. Read a low solubility as little dissolved substance. The term LD50 denotes the dose at which mortality reaches 50%. In the data set “physchem”, `CN(C)CCC1CC(=O)[O][Pt]([NH2])([NH2])[O]C1=O` (stereo not drawn) [Compound 2, [2-(2-dimethylaminoethyl)-succinato].[Cis-diamine]platinum (II)] registered a solubility of 176 mg/mL. This compound also had an LD50 at 14 days in data set [1] of 511 µmol/kg.
A word on the IC50: it is the point on the concentration scale where inhibition reaches its midpoint. On to `CCN(CC)CCC(CC(=O)[O-])C(=O)[O-].NC1CCC(N)CC1.[Pt+2]` (stereo not drawn) [Compound 25, [2-(2-diethylaminoethyl)-succinato].[Cis-1,4-cyclohexyldiamine]platinum (II)], for which the IC50 in the data set with Esophagus cancer ECA109 came to 116 µM; in the data set with Testis cell ST it was 102 µM; with Gastric cancer MGC803, 96 µM; in the data set on Lung cancer H292, 106 µM. In data set [2], the solubility came to 125 mg/mL. Also, the “Tumor inhibition rate (x ± SD)” value in the data set with breast cancer MCF-7 was 66.9 ± 9.49 9%. Moreover, in the data set on normal mice, the LD50 value worked out at 0.459 mmol/kg.
As for `CN(C)CCC(CC(=O)[O-])C(=O)[O-].NCC1CCC1CN.[Pt+2]` (racemic) [Compound 23, [2-(2-dimethylaminoethyl)-succinato].[Cis-1,4-(trans-2,3-cyclobutyl)-butyldiamine]platinum (II)], the IC50 with Esophagus cancer ECA109 came out at 102 µM; in the data set with Testis cell ST it was 18 µM; with Gastric cancer MGC803, 146 µM; with Lung cancer H292 it was 51 µM. Also, the solubility in data set [2] was found to be 165 mg/mL. Besides, in the data set on breast cancer MCF-7, the “Tumor inhibition rate (x ± SD)” value is listed as 85.1 ± 10.37 9%. Moreover, the LD50 value with normal mice was determined as 0.512 mmol/kg.
With `CCN(CC)CCCC1CC(=O)[O][Pt]2([NH]C3CCC3[NH]2)[O]C1=O` (stereo not drawn) [Compound 16, [2-(3-diethylamino propyl)-succinato].[Cis-(1,2-trans-cyclobutyldiamine)]platinum (II)], the IC50 with Lewis lung cancer was found to be 33 µM; with Colon cancer SW480, 84 µM; in data set [3], 45 µM; in the data set with Lung cancer H292 it was 8 µM. In data set [2], this compound came in with a solubility of 186 mg/mL. For the same compound, the “Tumor inhibition rate (x ± SD)” value with breast cancer MCF-7 is given as 70.4 ± 10.81 9%. The compound further registered an LD50 value with normal mice of 0.623 mmol/kg.
Consider `[NH2][Pt]1([NH2])[O]C(=O)CC(CCCN2CCCC2)C(=O)[O]1` (stereo not drawn) [Compound 8, [2-(3-(1-pyrrolidyl)-propyl)-succinato].[Cis-diamine]platinum (II)], for which the solubility in “physchem” worked out at 135 mg/mL. In [1], this compound had an LD50 at 14 days of 605 µmol/kg.
For `CCN(CC)CCC(CC(=O)[O-])C(=O)[O-].NCC1CCC1CN.[Pt+2]` (racemic) [Compound 24, [2-(2-diethylamino ethyl)-succinato].[Cis-1,4-(trans-2,3-cyclobutyl)-butanediamine]platinum (II)], the IC50 with Esophagus cancer ECA109 came out at 71 µM; in the data set with Testis cell ST, 12 µM; with Gastric cancer MGC803, 119 µM; in the data set on Lung cancer H292, 25 µM. The same compound showed a solubility in data set [2] of 176 mg/mL. Besides, in the data set with breast cancer MCF-7, the “Tumor inhibition rate (x ± SD)” value is reported as 69.3 ± 10.13 9%. Also, in the data set on normal mice, the LD50 value is on record as 0.525 mmol/kg.
Turning to `CN(C)CCC(CC(=O)[O-])C(=O)[O-].NCCN.[Pt+2]` (stereo not drawn) [Compound 18, [2-(2-dimethylaminoethyl)-succinato].[Cis-1,2-ethyldiamine]platinum (II)], the IC50 in the data set with Esophagus cancer ECA109 is 62 µM; in the data set with Testis cell ST, 10 µM; in the data set on Gastric cancer MGC803, 121 µM; with Lung cancer H292 it was 31 µM. The compound further displayed a solubility in [2] of 226 mg/mL. In the data set on breast cancer MCF-7, the “Tumor inhibition rate (x ± SD)” value is on record as 71.8 ± 12.01 9%. This compound also displayed an LD50 value in the data set on normal mice of 0.532 mmol/kg.
On to `CCN(CC)CCCCC(CC(=O)[O-])C(=O)[O-].NCCN.[Pt+2]` (stereo not drawn) [Compound 28, [2-(4-diethylamino butyl)-succinato].[Cis-1,2-ethylenediamine]platinum (II) toluenesulfonate], for which the IC50 in the data set with Esophagus cancer ECA109 was 56 µM; in the data set on Testis cell ST it was 138 µM; in the data set with Gastric cancer MGC803 it was 162 µM; in the data set with Lung cancer H292 it was 99 µM. For the same compound, in [2], the solubility came to 187 mg/mL. The “Tumor inhibition rate (x ± SD)” value with breast cancer MCF-7 was 76.4 ± 9.78 9%. For the same compound, the LD50 value in the data set on normal mice was found to be 0.612 mmol/kg.
On to `CCN(CC)CCCCC1CC(=O)[O][Pt]2([NH]C3CCCCC3[NH]2)[O]C1=O.O=P(O)(O)O` (stereo not drawn) [Compound 29, [2-(4-diethylamino butyl)-succinato].[Cis-(1,2-trans-cyclohexyldiamine)]platinum (II) phosphate], for which the IC50 in the data set on Esophagus cancer ECA109 was determined as 6 µM; with Testis cell ST it was 5 µM; with Gastric cancer MGC803, 7 µM; in the data set with Lung cancer H292 it was 3 µM. Moreover, the “Tumor inhibition rate (x ± SD)” value in the data set on breast cancer MCF-7 was 82.2 ± 10.82 9%. This compound showed an LD50 value in the data set with normal mice of 0.698 mmol/kg.
On to `CCN(CC)CCCC(CC(=O)[O-])C(=O)[O-].NC1CC1N.[Pt+2]` (racemic) [Compound 17, [2-(3-diethylamino propyl)-succinato].[Cis-(1,2-trans-cyclopropyldiamine)]platinum (II)], for which the IC50 in the data set on Esophagus cancer ECA109 amounted to 72 µM; in the data set on Testis cell ST it was 51 µM; in the data set on Gastric cancer MGC803, 13 µM; in the data set on Lung cancer H292 it was 31 µM. Moreover, the solubility in data set [2] was 195 mg/mL. For the same compound, in the data set with breast cancer MCF-7, the “Tumor inhibition rate (x ± SD)” value is reported as 82.5 ± 11.34 9%. The compound further came in with an LD50 value in the data set with normal mice of 0.581 mmol/kg.
As to `CCN(CC)CCC1CC(=O)[O][Pt]2([NH]CCC[NH]2)[O]C1=O` (stereo not drawn) [Compound 19, [2-(2-diethylaminoethyl)-succinato].[Cis-1,3-propyldiamine]platinum (II)], the IC50 with Esophagus cancer ECA109 is 8 µM; with Testis cell ST it was 12 µM; with Gastric cancer MGC803, 117 µM; in the data set on Lung cancer H292, 102 µM. In data set [2], this compound returned a solubility of 200 mg/mL. The “Tumor inhibition rate (x ± SD)” value in the data set on breast cancer MCF-7 was 65.3 ± 9.15 9%. Further, the LD50 value in the data set on normal mice was 0.454 mmol/kg.
Take `CCCN(CCC)CCCC(CC(=O)[O-])C(=O)[O-].N[C@@H]1CCCC[C@H]1N.[Pt+2]` (stereo not drawn) [Compound 14, [2-(3-di-n-propylamino propyl)-succinato].[Cis-(1,2-trans-cyclohexyldiamine)]platinum (II)]: the IC50 with Lewis lung cancer was 37 µM; in the data set with Colon cancer SW480, 51 µM; in [3] it was 8 µM; in the data set with Lung cancer H292 it was 9 µM. In the data set on breast cancer MCF-7, the “Tumor inhibition rate (x ± SD)” value is 70.1 ± 11.55 9%. For the same compound, in the data set with normal mice, the LD50 value was determined as 0.467 mmol/kg.
Regarding `CCN(CC)CCC1CC(=O)[O][Pt]2([NH]C(CO)C(CO)[NH]2)[O]C1=O` (stereo not drawn) [Compound 21, [2-(2-diethyl amino ethyl)-succinato].[Cis-1,2-(1,2-dihydroxymethyl)-ethyldiamine]platinum (II)], the IC50 is 84 µM with Esophagus cancer ECA109, 143 µM in the data set with Testis cell ST, 109 µM with Gastric cancer MGC803 and 21 µM in the data set on Lung cancer H292. In addition, in data set [2], the solubility was 176 mg/mL. The “Tumor inhibition rate (x ± SD)” value in the data set on breast cancer MCF-7 is 68.3 ± 10.88 9%. Besides, in the data set with normal mice, the LD50 value is given as 0.681 mmol/kg.
In the case of `CN(C)CCC1CC(=O)[O][Pt]2([NH]CC(CO)(CO)C[NH]2)[O]C1=O` (stereo not drawn) [Compound 22, [2-(2-dimethyl amino ethyl)-succinato].[Cis-1,3-(2,2-dihydroxytmethyl)-propyldiamine]platinum (II)], the half-maximal inhibitory concentration (IC50) is 17 µM in the data set with Esophagus cancer ECA109, 52 µM in the data set with Testis cell ST, 15 µM in the data set with Gastric cancer MGC803 and 65 µM in the data set on Lung cancer H292. Besides, the solubility in data set [2] is 205 mg/mL. Moreover, in the data set with breast cancer MCF-7, the “Tumor inhibition rate (x ± SD)” value is listed as 70.8 ± 10.12 9%. This compound gave an LD50 value in the data set with normal mice of 0.452 mmol/kg.
As for `CCN(CC)CCCC(CC(=O)[O-])C(=O)[O-].NC1CCCC1N.[Pt+2]` (racemic) [Compound 15, [2-(3-diethylamino propyl)-succinato].[Cis-(1,2-trans-cyclopentyldiamine)]platinum (II)], the IC50 with Lewis lung cancer came out at 51 µM; in the data set with Colon cancer SW480, 32 µM; in data set [3], 15 µM; in the data set on Lung cancer H292, 145 µM. Moreover, the solubility in data set [2] amounted to 151 mg/mL. In the data set on breast cancer MCF-7, the “Tumor inhibition rate (x ± SD)” value is recorded as 73.5 ± 12.31 9%. This compound showed an LD50 value with normal mice of 0.528 mmol/kg.
Take `CCCN(CCC)CCCC(CC(=O)[O-])C(=O)[O-].NCCCCN.[Pt+2]` (stereo not drawn) [Compound 20, [2-(3-di-n-propylaminopropyl)-succinato].[Cis-1,4-butyldiamine]platinum (II)]: the IC50 in the data set on Esophagus cancer ECA109 was 13 µM; in the data set on Testis cell ST it was 22 µM; in the data set with Gastric cancer MGC803 it was 66 µM; in the data set on Lung cancer H292, 59 µM. Besides, the solubility in data set [2] was 162 mg/mL. Also, the “Tumor inhibition rate (x ± SD)” value in the data set with breast cancer MCF-7 is recorded as 66.7 ± 10.61 9%. The compound also came in with an LD50 value with normal mice of 0.513 mmol/kg.
For `CCN(CC)CCC1CC(=O)[O][Pt]2([NH]CC3(CCOCC3)C[NH]2)[O]C1=O` (stereo not drawn) [Compound 26, [2-(2-diethylaminoethyl)-succinato].[Cis-1,3-(2,2-(4-oxacyclohexyl))-propyldiamine]platinum (II)], the IC50 in the data set on Esophagus cancer ECA109 was 32 µM; in the data set with Testis cell ST, 44 µM; with Gastric cancer MGC803, 35 µM; in the data set on Lung cancer H292 it was 47 µM. This compound yielded a solubility in data set [2] of 165 mg/mL. In the data set on breast cancer MCF-7, the “Tumor inhibition rate (x ± SD)” value is listed as 76.4 ± 14.85 9%. The same compound yielded an LD50 value in the data set with normal mice of 0.526 mmol/kg.
